Values after ≈ are worked out from the molar mass of the structure shown. Where two headings read alike, the source gives them in different places. No end group written: not given here.
Key:
[1] = test system: EGFR; experiment: Western blotting, EGFR phosphorylation; format: cell-based, human; settings: 0.2 μM AG1478, 10 minutes preincubation
Procedure: FIGS. 8A-8F indicate transactivation of the EGFR-STAT pathway by DRGN-1. Subconfluent keratinocytes were starved for 2 hours in HGKS-free medium and then stimulated with 10 μg/ml DRGN-1. For EGFR inhibition, cells were preincubated with 0.2 μM AG1478 for 10 minutes and subsequently treated with 10 μg/ml DRGN-1. The cells were harvested into lysis buffer at the indicated times. The phosphorylation of EGFR (p-EGFR) and STAT3 (p-STAT3) was analyzed by Western blotting (FIGS. 8A, 8B, 8D, and 8E). EGFR indicates total EGFR protein. FIGS. 8C and 8F are graphs plotting densitometric analyses of the expression of phosphoprotein relative to unphosphorylated proteins (pEGFR/EGFR, FIG. 8C; pSTAT3/STAT3, FIG. 8F).
Western blotting: Semifluent HEKa cells were serum-starved for 3 hours and then stimulated with 10 μg/ml DRGN-1 or HKGS for 5-30 minutes at 37° C. AG1478 (0.2 μM final) was added 10 minutes prior to DRGN-1 or HKGS treatment. Cells were lysed with 2×Laemmli sample buffer (Bio-Rad; Hercules, Calif.) containing 5 mM sodium fluoride and 2 mM sodium vanadate. Cell lysates were separated on a 4-12% SDS-PAGE gel and transferred to polyvinylidene difluoride membrane using an iBlot system (Invitrogen). The membranes were probed with antibodies specific to phospho-EGFR and EGFR (Cell Signaling). […]

[2] = test system: HEKa cells; experiment: In vitro scratch wound closure assay; format: cell-based, human; settings: 10 μg/ml DRGN-1; 20 μM mitomycin C or 0.2 μM AG1478 pretreatment
Procedure: In vitro scratch wound closure assays: In vitro wound closure was assayed in confluent cell monolayers of HEKa (Invitrogen) as described elsewhere (Kim et al., Amino Acids 46:2333-2343, 2014). Cells were seeded in 6-well plates (Corning, N.Y., USA) and grown until they reached confluence (48 hours) in EpiLife medium supplemented with HKGS. Cells were starved for 18 hours in EpiLife without HKGS and then scratched once vertically with a 200-μl pipette tip to create an artificial wound. For inhibitor studies, mitomycin C (20 μM final) and AG1478 (0.2 μM final) were added 90 minutes and 10 minutes prior to scratch generation. After being washed twice with PBS to remove cellular debris, cells were treated with DRGN-1, VK25 or LL-37. PBS was used as a negative control. Cells were photographed before peptide treatment and 7 hours and 24 hours after peptide treatment using an EVOS® Cell Imaging Systems (Invitrogen). The same image fields were captured and the wound areas were estimated using ImageJ software (Schneider et al., Nat Methods 9:671-675, 2012).

[3] = test system: adult human epidermal keratinocytes (HEKa) cells; experiment: MTT assay; format: cell-based; settings: for Toxic effects on metabolically active HEKa cells (MTT): 12.5˜100 μg/ml
Procedure: MTT assay: The toxic effect of the peptides on adult human epidermal keratinocytes (HEKa) cells was evaluated using the MTT (3-(4,5-dimethylthiazolyl-2)-2,5-diphenyltetrazolium bromide) colorimetric method (Di Grazia et al., Antimicrob Agents Chemother 58:2520-2527, 2014). The color intensity of the MTT is directly proportional to the number of metabolically active cells. Keratinocytes were plated in triplicate wells of a 96-well plate, at 4×10^4 cells/well in EpiLife medium supplemented with HKGS. After overnight incubation at 37° C. in a 5% CO2 atmosphere, the plate was incubated with the peptides at different concentrations for 2 hours, and 0.5 mg/ml of MTT was added. After 4 hours of incubation, formazan crystals were dissolved by adding 100 μl of acidified isopropanol, and the absorbance of each well was measured at 570 nm using a microplate reader (PowerWave X; BioTek, Winooski, Vt.).

[4] = test system: Gram-negative P. aeruginosa and E. coli and the Gram-positive S. aureus
[5] = test system: P. aeruginosa PAO1 (pTDK-GFP)
[6] = test system: P. aeruginosa ATCC 9027; settings: ATCC 9027, 3 h, pH 7.4
[7] = test system: sheep erythrocytes; experiment: Hemolytic activity; format: cell-based; settings: high concentration
Procedure: FIG. 4 is a graph plotting hemolytic activity of CAMPs. A fresh sheep erythrocyte suspension was incubated with the indicated peptides. Hemoglobin release into the supernatant was measured by absorbance at 567 nm to indicate membrane damage of erythrocytes.

[8] = test system: E. coli O157:H7; settings: 3 hours, 10 mM sodium phosphate buffer pH 7.4
[9] = test system: S. aureus ATCC25923; settings: ATCC25923, 3 h, pH 7.4
[10] = test system: internalized P. aeruginosa ATCC 9027 in HEKa keratinocytes; experiment: P. aeruginosa-infected HEKa keratinocytes; format: cell-based, Pseudomonas aeruginosa; settings: 30 μg/ml, 2 hours
Procedure: Cell infection: Adult human epidermal keratinocytes HEKa (Invitrogen, Carlsbad, Calif.) cells were seeded in 24-well plates (Corning) and grown until they reached confluence (48 h) in EpiLife medium (Thermo Scientific) supplemented with human keratinocyte growth supplements (HKGS) containing 0.2% v/v bovine pituitary extract, 5 μg/ml bovine insulin, 0.18 μg/ml hydrocortisone, 5 μg/ml bovine transferrin, and 0.2 ng/ml human epidermal growth factor (EGF) (Invitrogen). The bacterial strain P. aeruginosa ATCC 9027 was grown in brain heart infusion (BHI) media at 37° C. with mild shaking and then harvested by centrifugation. Bacterial suspension (MOI 10) in EpiLife medium was co-incubated with keratinocytes for 2 hours at 37° C. and 5% CO2. The medium was aspirated and the cells were washed three times with PBS to remove non-adherent bacteria. In order to kill extracellular bacteria, cells were incubated for 1 hour in EpiLife without HKGS supplemented with 100 μg/ml of gentamicin. The medium was then aspirated and the infected cells were washed three times, as described above. Three hundred microliters of peptide solution (30 μg/ml) in EpiLife without HKGS was added to each well and the plate was incubated for 2 hours at 37° C. and 5% CO2. […] The CFU were counted after 24 hours at 37° C.

[11] = test system: F. novicida U112; settings: 3 hours, 10 mM sodium phosphate buffer pH 7.4
[12] = test system: S. aureus SH1000 (pAH9-RFP); settings: 3 hours, 10 mM sodium phosphate buffer pH 7.4
[13] = test system: P. aeruginosa PAO1; settings: PAO1, 3 h, pH 7.4
[14] = 3 hours, 10 mM sodium phosphate buffer pH 7.4

Compound	Effect on DRGN-1-induced EGFR phosphorylation [1]	Effect on keratinocyte migration induced by DRGN-1 [2]	HEKa cell viability (MTT) ([3]; 50˜100 μg/ml)	EC50 [4] [nM]	EC50, range over strains [4] [µg/mL]	EC50 ([5]; PAO1, 3 h, pH 7.4) [µg/mL]	EC50 [6] [µg/mL]	Toxic effects on metabolically active HEKa cells (MTT) [3]	Toxicity against erythrocytes (hemolysis) [7]	EC50 [8] [µg/mL]	EC50 [9] [µg/mL]	Killing of internalized bacteria [10] [%]	EC50 [11] [µg/mL]	EC50 [12] [µg/mL]	EC50 [5, 14] [µg/mL]	EC50 [13] [µg/mL]
COc1cc2ncnc(Nc3cccc(Cl)c3)c2cc1OC [AG1478]	not observed in AG1478-treated cells	prevented cell migration														
CC[C@H](C)[C@H](NC(=O)[C@H](CCCCN)NC(=O)[C@H](CCC(=O)O)NC(=O)[C@H](CCCCN)NC(=O)[C@H](CO)NC(=O)[C@H](CCCCN)NC(=O)[C@H](CCCNC(=N)N)NC(=O)[C@H](Cc1ccccc1)NC(=O)[C@H](Cc1ccccc1)NC(=O)[C@H](CC(=O)O)NC(=O)CNC(=O)[C@H](CC(C)C)NC(=O)[C@@H](N)CC(C)C)C(=O)NCC(=O)N[C@@H](CCCCN)C(=O)N[C@@H](CCC(=O)O)C(=O)N[C@@H](Cc1ccccc1)C(=O)N[C@@H](CCCCN)C(=O)N[C@@H](CCCNC(=N)N)C(=O)N[C@H](C(=O)N[C@H](C(=O)N[C@@H](CCC(N)=O)C(=O)N[C@@H](CCCNC(=N)N)C(=O)N[C@H](C(=O)N[C@@H](CCCCN)C(=O)N[C@@H](CC(=O)O)C(=O)N[C@@H](Cc1ccccc1)C(=O)N[C@@H](CC(C)C)C(=O)N[C@@H](CCCNC(=N)N)C(=O)N[C@@H](CC(N)=O)C(=O)N[C@@H](CC(C)C)C(=O)N[C@H](C(=O)N1CCC[C@H]1C(=O)N[C@@H](CCCNC(=N)N)C(=O)N[C@H](C(=O)N[C@@H](CCC(=O)O)C(=O)N[C@@H](CO)C(=O)O)[C@@H](C)O)C(C)C)[C@@H](C)CC)C(C)C)[C@@H](C)CC [LL-37, reference compound]			significant decrease	50 to 600	0.24 to 2.7	2.69 (≈ 0.599 µM)	1.08 (≈ 0.24 µM)									
CO[C@@]12[C@H](COC(N)=O)C3=C(C(=O)C(C)=C(N)C3=O)N1C[C@@H]1N[C@@H]12 [mitomycin C]		strongly inhibited														
PSKKTKPVKPKKVA [DRGN-1, PSKKTKPVKPKKVA]				500 to 4620	0.77 to 7.1		4.39	devoid of toxic effects	did not show any toxicity	3.48	4.04	36	>100	0.77	7.10	6.85
SPKKTKPVKPKKVA [VK25, SPKKTKPVKPKKVA]					> 100		>100	devoid of toxic effects		>100	>100		>100	>100	>100	>100

— patent US10633420B2, “Antimicrobial peptides with wound healing activity” (priority 2016, dated 2020)
